Biological target: Polθ theta (1-899) (hPolQ) (Homo sapiens (Human), UniProt O75417)
Experiment: Biological Assay 1: Polθ ATPase activity, NADH oxidation-coupled enzymatic assay (10 nM enzyme, 30 min)
Format: biochemical
Conditions: Polθ (1-899) 10 nM, 100 μM ATP, 300 nM dT50 ssDNA; Examples 1 to 268; read-out: ATPase NADH coupling:Standard Screening:hPolQ IC50
Summary of the method: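 ATP turnover was coupled to NADH oxidation and followed at 340 nm every minute for 30 min. Enzyme (residues 1-899, 10 nM) sat with compound for 15 min at room temperature before an equal-volume addition of 100 μM ATP plus 300 nM dT50 ssDNA. Progress-curve slopes from 10-point dilutions were fitted by a four-parameter model.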

Chain of Polθ theta (1-899) (hPolQ) (O75417 1-899): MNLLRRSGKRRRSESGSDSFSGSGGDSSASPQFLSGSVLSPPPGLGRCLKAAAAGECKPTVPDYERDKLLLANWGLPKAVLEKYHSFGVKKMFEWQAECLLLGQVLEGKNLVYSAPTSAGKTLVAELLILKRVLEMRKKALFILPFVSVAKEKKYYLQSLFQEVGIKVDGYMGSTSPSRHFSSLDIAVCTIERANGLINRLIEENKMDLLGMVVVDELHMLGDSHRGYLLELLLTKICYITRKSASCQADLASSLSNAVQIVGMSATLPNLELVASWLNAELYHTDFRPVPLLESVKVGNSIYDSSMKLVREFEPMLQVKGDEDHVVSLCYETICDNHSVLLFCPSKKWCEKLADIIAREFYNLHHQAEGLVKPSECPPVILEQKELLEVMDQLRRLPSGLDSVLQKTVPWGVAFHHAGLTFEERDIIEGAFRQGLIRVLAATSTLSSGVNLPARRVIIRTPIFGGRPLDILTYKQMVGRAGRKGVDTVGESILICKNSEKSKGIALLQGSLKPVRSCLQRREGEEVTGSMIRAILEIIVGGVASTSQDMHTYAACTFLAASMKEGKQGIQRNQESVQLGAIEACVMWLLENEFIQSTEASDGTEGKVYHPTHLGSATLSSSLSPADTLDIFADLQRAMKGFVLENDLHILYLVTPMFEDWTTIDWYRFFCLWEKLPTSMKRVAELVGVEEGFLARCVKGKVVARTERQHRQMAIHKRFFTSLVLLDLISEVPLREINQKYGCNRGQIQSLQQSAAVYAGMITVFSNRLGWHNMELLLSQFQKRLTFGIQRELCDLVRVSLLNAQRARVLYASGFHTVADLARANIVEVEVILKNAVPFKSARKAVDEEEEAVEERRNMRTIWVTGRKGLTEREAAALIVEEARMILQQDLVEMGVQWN

Row | SMILES | IC50 [nM]
1 | COc1cccnc1-c1cc(C)ncc1C(=O)Nc1nnc(OCc2ccc(Cl)cn2)s1 [Example 120, N-(5-((5-chloropyridin-2-yl)methoxy)-1,3,4-thiadiazol-2-yl)-3-methoxy-6′-methyl-(2,4′-bipyridine)-3′-carboxamide] | 200 to 500
2 | COc1cccc(F)c1-c1cc(C)ncc1C(=O)Nc1nnc(OCc2cc(CO)ccn2)s1 [Example 72, 4-(2-fluoro-6-methoxyphenyl)-N-(5-((4-(hydroxymethyl)pyridin-2-yl)methoxy)-1,3,4-thiadiazol-2-yl)-6-methylnicotinamide] | ≤ 200
3 | CN=[S@@](C)(=O)c1ccc(COc2nnc(NC(=O)c3cnc(C)cc3-c3c(F)cccc3OC)s2)cc1 [Example 155, N-(5-((4-((S)—N,S-dimethylsulfonimidoyl)benzyl)oxy)-1,3,4-thiadiazol-2-yl)-4-(2-fluoro-6-methoxyphenyl)-6-methylnicotinamide] | ≤ 200
4 | COc1cnc(Cl)cc1-c1cc(C)ncc1C(=O)Nc1nnc(OCC2COC(CO)CO2)s1 (stereo not drawn) [Example 246, 2′-chloro-N-(5-((5-(hydroxymethyl)-1,4-dioxan-2-yl)methoxy)-1,3,4-thiadiazol-2-yl)-5′-methoxy-6-methyl-(4,4′-bipyridine)-3-carboxamide] | ≤ 200
5 | COc1cnc(Cl)cc1-c1cc(C)ncc1C(=O)Nc1nnc(OCC2CC3CC2CN3C(=O)C(C)C)s1 (stereo not drawn) [Example 156, 2′-chloro-N-(5-((2-isobutyryl-2-azabicyclo[2.2.1]heptan-5-yl)methoxy)-1,3,4-thiadiazol-2-yl)-5′-methoxy-6-methyl-[4,4′-bipyridine]-3-carboxamide] | ≤ 200
6 | CN=[S@](C)(=O)c1ccc(COc2nnc(NC(=O)c3cnc(C)cc3-c3cc(Cl)ccc3OC)s2)nc1 [Example 144, (R)-4-(5-chloro-2-methoxyphenyl)-N-(5-((5-(N,S-dimethylsulfonimidoyl)pyridin-2-yl)methoxy)-1,3,4-thiadiazol-2-yl)-6-methylnicotinamide] | ≤ 200
7 | COc1ccccc1-c1cc(C)ncc1C(=O)Nc1nnc(O[C@H](CO)c2ccc(Cl)cn2)s1 [Example 30, (S)—N-(5-(1-(5-chloropyridin-2-yl)-2-hydroxyethoxy)-1,3,4-thiadiazol-2-yl)-4-(2-methoxyphenyl)-6-methylnicotinamide] | 500 to 1000
8 | COc1cnc(C)cc1-c1cc(C)ncc1C(=O)Nc1nnc(OC[C@H]2C[C@H](O)C2)s1 [Example 107, N-(5-(((1r,3r)-3-hydroxycyclobutyl)methoxy)-1,3,4-thiadiazol-2-yl)-5′-methoxy-2′,6-dimethyl-[4,4′-bipyridine]-3-carboxamide] | ≤ 200
9 | COc1cccc(F)c1-c1cc(C)ncc1C(=O)Nc1nnc(OCC2CCCn3nccc32)s1 (stereo not drawn) [Example 135, 4-(2-fluoro-6-methoxyphenyl)-6-methyl-N-(5-(4H,5H,6H,7H-pyrazolo(1,5-a)pyridin-4-ylmethoxy)-1,3,4-thiadiazol-2-yl)pyridine-3-carboxamide] | ≤ 200
10 | COc1cnc(C)cc1-c1cc(C)ncc1C(=O)Nc1nnc(OC[C@H]2CC[C@@H](O)CC2)s1 [Example 127, N-(5-(((1s,4s)-4-hydroxycyclohexyl)methoxy)-1,3,4-thiadiazol-2-yl)-5′-methoxy-2′,6-dimethyl-[4,4′-bipyridine]-3-carboxamide] | ≤ 200
11 | COc1cnc(C)cc1-c1cc(C)ncc1C(=O)Nc1nnc(OCc2ccc(C(C)(C)OC)cn2)s1 [Example 126, 5′-methoxy-N-(5-((5-(2-methoxypropan-2-yl)pyridin-2-yl)methoxy)-1,3,4-thiadiazol-2-yl)-2′,6-dimethyl-(4,4′-bipyridine)-3-carboxamide] | ≤ 200
12 | COc1cnc(Cl)cc1-c1cc(C)ncc1C(=O)Nc1nnc(OC[C@H]2CC[C@@H](F)CC2)s1 [Example 196, 2′-chloro-N-(5-(((1s,4s)-4-fluorocyclohexyl)methoxy)-1,3,4-thiadiazol-2-yl)-5′-methoxy-6-methyl-(4,4′-bipyridine)-3-carboxamide] | ≤ 200
13 | COc1cnc(Cl)c(F)c1-c1cc(C)ncc1C(=O)Nc1nnc(OCC2CCOC2)s1 (stereo in doubt) [Example 183, 2′-chloro-3′-fluoro-5′-methoxy-6-methyl-N-(5-(((R)-tetrahydrofuran-3-yl)methoxy)-1,3,4-thiadiazol-2-yl)-(4,4′-bipyridine)-3-carboxamide] | ≤ 200
14 | COc1cnc(Br)cc1-c1cc(C)ncc1C(=O)Nc1nnc(OC[C@H]2CCOC2)s1 (single isomer, unassigned) [Example 244] | ≤ 200
15 | COc1cnc(Cl)cc1-c1cc(C)ncc1C(=O)Nc1nnc(OCC2COC2)s1 [Example 164, 2′-chloro-5′-methoxy-6-methyl-N-(5-(oxetan-3-ylmethoxy)-1,3,4-thiadiazol-2-yl)-(4,4′-bipyridine)-3-carboxamide] | ≤ 200
16 | COc1ccccc1-c1cc(C)ncc1C(=O)Nc1nnc(OC[C@@H](O)c2ccc(Cl)cn2)s1 [Example 28, (S)—N-(5-(2-(5-chloropyridin-2-yl)-2-hydroxyethoxy)-1,3,4-thiadiazol-2-yl)-4-(2-methoxyphenyl)-6-methylnicotinamide] | 500 to 1000
17 | COc1cnc(Cl)cc1-c1cc(C)ncc1C(=O)Nc1nnc(OCC23CC(F)(C2)C3)s1 [Example 78, 2′-chloro-N-(5-((3-fluorobicyclo(1.1.1)pentan-1-yl)methoxy)-1,3,4-thiadiazol-2-yl)-5′-methoxy-6-methyl-(4,4′-bipyridine)-3-carboxamide] | ≤ 200

Row | SMILES | IC50 [nM]
18 | COc1ccc(COc2nnc(NC(=O)c3cnc(C)cc3-c3ccccc3OC(F)F)s2)nc1 [Example 53, 4-(2-(difluoromethoxy)phenyl)-N-(5-((5-methoxypyridin-2-yl)methoxy)-1,3,4-thiadiazol-2-yl)-6-methylnicotinamide] | ≤ 200
19 | COc1cnc(Cl)cc1-c1cc(C)ncc1C(=O)Nc1nnc(OCC2CCNCC2)s1 [Example 174, 2′-chloro-5′-methoxy-6-methyl-N-(5-(piperidin-4-ylmethoxy)-1,3,4-thiadiazol-2-yl)-(4,4′-bipyridine)-3-carboxamide] | ≤ 200
20 | COc1cccc(F)c1-c1cc(C)ncc1C(=O)Nc1nnc(OCc2ccc(OC3COC3)cn2)s1 [Example 38, 4-(2-fluoro-6-methoxyphenyl)-6-methyl-N-(5-((5-(oxetan-3-yloxy)pyridin-2-yl)methoxy)-1,3,4-thiadiazol-2-yl)pyridine-3-carboxamide] | ≤ 200
21 | COc1ccccc1-c1cc(C)ncc1C(=O)Nc1nnc(O[C@@H](C)c2ccc(Cl)cn2)s1 [Example 11, (S)—N-(5-(1-(5-chloropyridin-2-yl)ethoxy)-1,3,4-thiadiazol-2-yl)-4-(2-methoxyphenyl)-6-methylnicotinamide] | ≤ 200
22 | COc1cccc(F)c1-c1cc(C)ncc1C(=O)Nc1nnc(OCc2ccc([S@](C)(=N)=O)cc2)s1 [Example 114, 4-(2-fluoro-6-methoxyphenyl)-6-methyl-N-(5-((4-((R)—S-methylsulfonimidoyl)benzyl)oxy)-1,3,4-thiadiazol-2-yl)nicotinamide] | ≤ 200
23 | COc1cnc(Cl)cc1-c1cc(C)ncc1C(=O)Nc1nnc(OC[C@H]2CCO[C@H]2C)s1 (single isomer, unassigned) [Example 181] | ≤ 200
24 | COCc1ccc(COc2nnc(NC(=O)c3cnc(C)cc3-c3c(F)cccc3OC)s2)nc1 [Example 34, 4-(2-fluoro-6-methoxyphenyl)-N-(5-((5-(methoxymethyl)pyridin-2-yl)methoxy)-1,3,4-thiadiazol-2-yl)-6-methylnicotinamide] | ≤ 200
25 | COc1cnc(Cl)cc1-c1cc(C)ncc1C(=O)Nc1nnc(OC[C@H]2CCO[C@@H]2C)s1 (single isomer, unassigned) [Example 182] | ≤ 200
26 | COc1cccc(F)c1-c1cc(C)ncc1C(=O)Nc1nnc(OCC23CC(O)(C2)C3)s1 [Example 61, 4-(2-fluoro-6-methoxyphenyl)-N-(5-((3-hydroxybicyclo(1.1.1)pentan-1-yl)methoxy)-1,3,4-thiadiazol-2-yl)-6-methylnicotinamide] | ≤ 200
27 | COc1cnc(Cl)cc1-c1cc(C)ncc1C(=O)Nc1nnc(OCC2CC3(CC(O)C3)C2)s1 (stereo not drawn) [Example 138, 2′-chloro-N-(5-((6-hydroxyspiro[3.3]heptan-2-yl)methoxy)-1,3,4-thiadiazol-2-yl)-5′-methoxy-6-methyl-[4,4′-bipyridine]-3-carboxamide] | ≤ 200
28 | COc1cccc(F)c1-c1cn2ncc(C)c2cc1C(=O)Nc1nnc(OC[C@H]2CC[C@H](O)CC2)s1 [Example 194, 6-(2-fluoro-6-methoxyphenyl)-N-(5-(((1r,4r)-4-hydroxycyclohexyl)methoxy)-1,3,4-thiadiazol-2-yl)-3-methylpyrazolo(1,5-a)pyridine-5-carboxamide] | 1000 to 10000
29 | COc1cnc(Cl)cc1-c1cc(C)ncc1C(=O)Nc1nnc(OC[C@]23COC[C@H]2C3)s1 (single isomer, unassigned) [Example 231] | ≤ 200
30 | COc1cnc(Cl)cc1-c1cc(C)ncc1C(=O)Nc1nnc(OC[C@@H]2COC3(CCC3)C2)s1 (single isomer, unassigned) [Example 226] | ≤ 200
31 | COc1cnc(C)cc1-c1cc(C)ncc1C(=O)Nc1nnc(OCc2ccc(Cl)cn2)s1 [Example 36, N-(5-((5-chloropyridin-2-yl)methoxy)-1,3,4-thiadiazol-2-yl)-5′-methoxy-2′,6-dimethyl-(4,4′-bipyridine)-3-carboxamide] | ≤ 200
32 | COc1cnc(Cl)cc1-c1cc(C)ncc1C(=O)Nc1nnc(OC[C@@H]2CCO[C@H]2C)s1 (single isomer, unassigned) [Example 180] | ≤ 200
33 | COc1cccc(F)c1-c1cc(C)ncc1C(=O)Nc1nnc(OCc2ccc([S@](C)(=N)=O)cn2)s1 [Example 149, 4-(2-fluoro-6-methoxyphenyl)-6-methyl-N-(5-((5-((R)—S-methylsulfonimidoyl)pyridin-2-yl)methoxy)-1,3,4-thiadiazol-2-yl)nicotinamide] | ≤ 200
